This assay has as its target T1, curli (CsgA amyloid fibers) (Escherichia coli, UniProt P28307).
T1 construct: native curli fibers isolated from MC4100, mature CsgA polymer (sec signal removed; native fibers may contain minor nucleator CsgB); immobilized by amine coupling for SPR
Put plainly: surface plasmon resonance (Biacore […]), curli immobilized on CM5 chip. Type of assay: binding. Background: In SPR one partner is held on a chip, and binding of the other changes the refractive index at the surface.

Each structure is given as a SMILES string.

T1 sequence (P28307 21-151): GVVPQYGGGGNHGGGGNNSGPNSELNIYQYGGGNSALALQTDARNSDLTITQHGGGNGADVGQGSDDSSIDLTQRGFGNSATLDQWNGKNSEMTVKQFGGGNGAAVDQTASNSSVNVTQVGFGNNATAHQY

In general, Kd refers to the constant that tells how readily two partners part at equilibrium. Higher therefore signals weaker binding. Consider `Nc1c(/N=N/c2ccc(-c3ccc(/N=N/c4cc(S(=O)(=O)O)c5ccccc5c4N)cc3)cc2)cc(S(=O)(=O)O)c2ccccc12` [CR, Congo red], for which the affinity, expressed as Kd, was 2800 nM.
